Measured values as given in paper PMC6918900, “Concentration-Dependent Activity of Hydromethylthionine on Cognitive Decline and Brain Atrophy in Mild to Moderate Alzheimer’s Disease” (Journal of Alzheimer's Disease, 2019).
Where “and” joins values, the source holds several entries; their conditions need not be identical. Equal values may be shown once. Read-outs that look alike come from different tables or passages of the source.

Experiments:
[1] = mice; cited from earlier work
[2] = tested on: tau transgenic mouse models; conditions: dose of 9 mg/kg/day; cited from earlier work
[3] = Estimated steady state brain concentration of LMT; set-up: species or system human; conditions: corresponding to 0.3–0.8 ng/ml in plasma
[4] = elderly humans; cited from earlier work
autophagy = tested on: autophagy; set-up: method as in PMID 26572258, PMID 22361619; conditions: cited from earlier work
[5] = tested on: tangle filaments isolated from AD brain tissues; set-up: method as in PMID 25759392, PMID 8855335; conditions: at a similar molar ratio (tau:LMT 1 : 0.1); cited from earlier work
electron transfer chain = tested on: electron transfer chain; set-up: method as in PMID 17928358, PMID 22419586; conditions: supplementary electron carrier in the electron transfer chain; cited from earlier work
[6] = earlier Phase II study; cited from earlier work

SMILES: CN(C)c1ccc2c(c1)Sc1cc(N(C)C)ccc1N2 [LMT, leuco-methylthioninium]
- half-life [1]: 4 h
- effect on tau aggregation pathology and behavioral deficits [2]: reduces tau aggregation pathology and associated behavioral deficits
- estimated steady state concentration in the brain [3]: 6–16 ng/ml and 0.021–0.056 μM
- half-life [4]: 37 h

SMILES: CN(C)c1ccc2nc3ccc(=[N+](C)C)cc-3sc2c1 [MT moiety, methylthioninium]
- concentration range enhancing autophagy (autophagy): 10 to 20 nM
- effect on proteolytic stability of tangle filaments [5]: reverse the proteolytic stability of tangle filaments
- concentrations enhancing mitochondrial activity (electron transfer chain): 10 to 100 nM

SMILES: CN(C)c1ccc2nc3ccc(=[N+](C)C)cc-3sc2c1 [MTC, methylthioninium chloride]
- minimum effective dose [6]: 138 mg/day
